ChEMBL document CHEMBL1201862, “PubChem BioAssay data set” (2004)
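1) Cells in 96-well plates. 2) Compound, 48 h, 5 concentrations. 3) Linear interpolation between surrounding doses. 4) Unreached endpoint = highest concentration. The concentration for 50% growth inhibition is given as GI50.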 The source made the active and inactive calls. No stated cut-off is given here; in the data, active = GI50 up to about 1.1 µM and inactive = higher.

How the values were obtained:
Assay in all cases: NCI-60 cell line screen, 48 h
[1] = tested on: SNB-19
[2] = tested on: U-251
[3] = tested on: HCT-15
[4] = tested on: BT-549
[5] = tested on: OVCAR-4
[6] = tested on: NCI-H522
[7] = tested on: SR
[8] = tested on: SF-539
[9] = tested on: MDA-N
[10] = tested on: HOP-62
[11] = tested on: SF-295
[12] = tested on: UO-31
[13] = tested on: LOX IMVI
[14] = tested on: NCI-H226
[15] = tested on: HT-29
[16] = tested on: NCI-H23
[17] = tested on: SK-OV-3
[18] = tested on: SW-620
[19] = tested on: SK-MEL-28

## c1ccc2c3c(c(N4CCOCC4)nc2c1)CCCC3
[1]
  GI50: 36.9 µM (inactive)
[2]
  GI50: 36.6 µM (inactive)
[3]
  GI50: 35.3 µM
[4]
  GI50: 39.7 µM (inactive)
[5]
  GI50: 49.9 µM (inactive)
[6]
  GI50: 29.7 µM (inactive)
[7]
  GI50: 46.8 µM (inactive)
[8]
  GI50: 20.8 µM (inactive)
[9]
  GI50: 50.4 µM (inactive)
[10]
  GI50: 92.5 µM (inactive)
[11]
  GI50: 39.6 µM (inactive)
[12]
  GI50: 41.2 µM (inactive)
[13]
  GI50: 39.9 µM (inactive)
[14]
  GI50: 19.6 µM (inactive)
[15]
  GI50: 22.7 µM (inactive)
[16]
  GI50: 56.5 µM (inactive)
[17]
  GI50: 86.1 µM (inactive)
[18]
  GI50: 43.8 µM (inactive)
[19]
  GI50: 85.1 µM (inactive)

## CCOC(=O)C(NC(=O)CC)(Nc1ccc(S(=O)(=O)Nc2onc(C)c2C)cc1)C(F)(F)F (configuration not stated)
[1]
  GI50: > 100 µM (inactive)
[2]
  GI50: > 100 µM (inactive)
[3]
  GI50: > 100 µM
[4]
  GI50: > 100 µM (inactive)
[5]
  GI50: > 100 µM (inactive)
[6]
  GI50: > 100 µM (inactive)
[7]
  GI50: > 100 µM (inactive)
[8]
  GI50: > 100 µM (inactive)
[9]
  GI50: > 100 µM (inactive)
[10]
  GI50: > 100 µM (inactive)
[11]
  GI50: > 100 µM (inactive)
[12]
  GI50: > 100 µM (inactive)
[13]
  GI50: > 100 µM (inactive)
[14]
  GI50: > 100 µM (inactive)
[15]
  GI50: > 100 µM (inactive)
[16]
  GI50: > 100 µM (inactive)
[17]
  GI50: > 100 µM (inactive)
[18]
  GI50: > 100 µM (inactive)
[19]
  GI50: > 100 µM (inactive)

## CN(C)/C=N/c1ccc2c3c(cccc13)-c1ccccc1-2
[1]
  GI50: 14.4 µM (inactive)
[2]
  GI50: 13.4 µM (inactive)
[3]
  GI50: 11.8 µM
[4]
  GI50: 17 µM (inactive)
[5]
  GI50: 15.7 µM (inactive)
[6]
  GI50: 3.66 µM (inactive)
[7]
  GI50: 10.3 µM (inactive)
[8]
  GI50: 12.1 µM (inactive)
[9]
  GI50: 14.5 µM (inactive)
[10]
  GI50: 16 µM (inactive)
[11]
  GI50: 14.4 µM (inactive)
[12]
  GI50: 5.22 µM (inactive)
[13]
  GI50: 14.5 µM (inactive)
[14]
  GI50: 10.6 µM (inactive)
[15]
  GI50: 10 µM (inactive)
[16]
  GI50: 17.2 µM (inactive)
[17]
  GI50: 13.7 µM (inactive)
[19]
  GI50: 17.7 µM (inactive)

## CCOC(=O)c1ccc2nc(-c3ccc(S(=O)(=O)F)cc3)cc(O)c2c1
[1]
  GI50: > 100 µM (inactive)
[2]
  GI50: 34.9 µM (inactive)
[3]
  GI50: 31.6 µM
[4]
  GI50: 37.8 µM (inactive)
[5]
  GI50: 65.3 µM (inactive)
[6]
  GI50: 15.8 µM (inactive)
[7]
  GI50: 35.5 µM (inactive)
[8]
  GI50: 56.5 µM (inactive)
[9]
  GI50: 33.5 µM (inactive)
[10]
  GI50: 32.5 µM (inactive)
[11]
  GI50: 39.8 µM (inactive)
[12]
  GI50: 71 µM (inactive)
[13]
  GI50: 36.5 µM (inactive)
[14]
  GI50: > 100 µM (inactive)
[15]
  GI50: 62.1 µM (inactive)
[16]
  GI50: 21.6 µM (inactive)
[17]
  GI50: 38.9 µM (inactive)
[18]
  GI50: 76.7 µM (inactive)
[19]
  GI50: 59.6 µM (inactive)

## CC(C)CCC/C(CBr)=C(\Cl)CCl
[1]
  GI50: 14.5 µM (inactive)
[2]
  GI50: 4.04 µM (inactive)
[3]
  GI50: 2.8 µM
[4]
  GI50: 1.82 µM (inactive)
[5]
  GI50: 1.48 µM (inactive)
[6]
  GI50: 0.15 µM (active)
[7]
  GI50: 0.746 µM (active)
[8]
  GI50: 10.4 µM (inactive)
[9]
  GI50: 1.83 µM (inactive)
[10]
  GI50: 8.02 µM (inactive)
[11]
  GI50: 13.3 µM (inactive)
[12]
  GI50: 3.27 µM (inactive)
[13]
  GI50: 0.0728 µM (active)
[14]
  GI50: 7.89 µM (inactive)
[15]
  GI50: 2.37 µM (inactive)
[16]
  GI50: 2.4 µM (inactive)
[17]
  GI50: 7.82 µM (inactive)
[18]
  GI50: 1.5 µM (inactive)
[19]
  GI50: 2.07 µM (inactive)

## CC(C)=CCC[C@@H](C)C1=C(O)C(=O)C(C)=C(Nc2ccccc2Cl)C1=O
[1]
  GI50: 30.7 µM (inactive)
[2]
  GI50: 16.3 µM (inactive)
[3]
  GI50: 7.26 µM
[4]
  GI50: 32.4 µM (inactive)
[5]
  GI50: 11.2 µM (inactive)
[6]
  GI50: 6.25 µM (inactive)
[7]
  GI50: 11.5 µM (inactive)
[8]
  GI50: 9.31 µM (inactive)
[9]
  GI50: 21.5 µM (inactive)
[10]
  GI50: 11.6 µM (inactive)
[11]
  GI50: 6.71 µM (inactive)
[12]
  GI50: 12.4 µM (inactive)
[13]
  GI50: 8.57 µM (inactive)
[14]
  GI50: 13.1 µM (inactive)
[15]
  GI50: 13 µM (inactive)
[16]
  GI50: 12.5 µM (inactive)
[17]
  GI50: 27.1 µM (inactive)
[18]
  GI50: 27 µM (inactive)
[19]
  GI50: 26.5 µM (inactive)

## COc1ccccc1NC(=O)C(C#N)=C(SC)SC
[1]
  GI50: > 100 µM (inactive)
[2]
  GI50: > 100 µM (inactive)
[3]
  GI50: > 100 µM
[4]
  GI50: > 100 µM (inactive)
[5]
  GI50: > 100 µM (inactive)
[6]
  GI50: > 100 µM (inactive)
[7]
  GI50: > 100 µM (inactive)
[8]
  GI50: > 100 µM (inactive)
[9]
  GI50: > 100 µM (inactive)
[10]
  GI50: > 100 µM (inactive)
[11]
  GI50: > 100 µM (inactive)
[12]
  GI50: > 100 µM (inactive)
[13]
  GI50: > 100 µM (inactive)
[14]
  GI50: > 100 µM (inactive)
[15]
  GI50: > 100 µM (inactive)
[16]
  GI50: > 100 µM (inactive)
[17]
  GI50: > 100 µM (inactive)
[18]
  GI50: > 100 µM (inactive)
[19]
  GI50: > 100 µM (inactive)
